Consider six compounds from patent US5571786A, “Use of protein C or the activation peptide of protein C for preparing a pharmaceutical preparation” (Immuno Aktiengesellschaft, priority 1990, dated 1996).

Where “and” joins values, the source holds several entries; their conditions need not be identical. Equal entries are not always repeated.

For one data set, the system named is inflamed rat paw model. The data set is described as follows: inflamed rat paw model: pain threshold after local carrageenan (Randall and Selitto). It is filed as in vivo. The note with it: for Pain threshold: 3 hrs after carrageenan, protein C 800 U/kg; for antagonism of the anti-nociceptive effect of protein C: β-blocking agent given with protein C. The source says:
See, Kirchhoff et al., Neuroscience Lett. 111:206-210 (1990). Subcutaneous administration of carrageenan into the rat paw produces an inflammatory edema characterized by infiltration of neutrophils, plasma extravasation, release and synthesis of histamine, bradykinins and prostaglandin E2. Id. As such, the rat paw is a recognized model of the inflammatory process and may be utilized for studying the nociceptive effects attendant thereto. Id. Thus, the rat paw provides a recognized model for evaluating the anti-nociceptive effects of protein C and/or the activation peptide of protein C according to the present invention.
The pain threshold was measured in a manner analogous to the method described by Randall and Selitto (Randall LO and Selitto JJ: A method for measurement of analgesic activity on inflamed tissue, Arch. Int. Pharmacodyn. 111, 409-419, 1957). To this end, a mercury manometer was connected to a 10 ml syringe whose plunger was equipped with a short bullet-shaped peg. Increasing pressure was applied to the rat's paw through this syringe (20 mmHg/s). The pain threshold was defined as the pressure in mmHg required to induce a flight (struggle) reaction.
Female Sprague-Dawley rats weighing between 250 and 350 g were used. Inflammation was produced by the intraplanter (i.pl.) injection of 3 mg carrageenan (Sigma Chemical Co., Cat. No., C-1013) suspended in 100 μl isotonic saline solution (0.9%) into the rat's paw.
The pain threshold was measured before (control value) and every hour up to six hours after the injection of carrageenan. The pain threshold measured after carrageenan injection was expressed in percent of the control value.
Unless otherwise specified, protein C was intravenously injected into a vein of the tail immediately upon the carrageenan injection. The injection volume was 2 ml/kg.
A dose response curve for protein C administered i.v. and protein C (i.v.) immediately followed by a solution of 1 mg/kg antibody HPC-4 (i.v.) was determined. The experiments were carried out essentially as set forth in Example 4.
The anti-nociceptive effects of the activation peptide of protein C (SEQ. ID. NO. 1) prepared as described in Example 7 were determined essentially as described in Examples 4 and 6. In the test animals, the […], each, in a constant injection volume of 2 ml/kg, simultaneously with intraplantar (i.pl.) administration of carrageenan into the rat's paw to induce an inflammatory response and pain. In a second set of test animals, antibody HPC-4 (1 mg/kg) was administered i.v. immediately following i.v. administration of the peptide (SEQ. ID. NO. 1). The anti-nociceptive effects of the peptide (SEQ. ID. NO. 1) administration and antagonism thereof by antibody HPC-4 as measured 6 hours later are shown in FIG. 3.

The next data set concerns perivascular leukocytes. The data set is described as follows: histological examination of the rat paws. It counts as in vivo. To be noted: rat paws after protein C, compared to untreated animals. The source says: Thus, protein C appears to have an effect on vessel permeability, which allows the migration of leukocytes through the blood vessel into the perivascular region.

Data set [1] relates to histamine-induced enhanced vascular permeability. The data set can be described thus: histamine-induced enhanced vascular permeability (Evan's Blue wheals). It is filed as in vivo, guinea pigs. The method, then: (§1) The effect of protein C on capillary leakage in guinea pigs was studied in order to confirm the efficacy of protein C in antagonizing enhanced vessel permeability in anesthetized guinea pigs. The study was carried out as follows:
(§2) After intravenous administration of Evan's Blue, anesthetized guinea pigs received either a protein C concentrate or a formulation buffer. Thereafter, the test animals were treated with histamine or thrombin intracutaneously to induce enhanced vessel permeability, or with saline as a control. The animals were then examined visually for the occurrence of discoloration of the resulting wheals. The results are depicted in FIG. 4 (histamine treatment, protein C or saline), FIG. 5 (thrombin treatment, protein C or saline) and FIG. 6 (thrombin treatment, buffer or saline).
(§3) In these studies, a colorless wheal was recorded as a negative observation (i.e., no disturbance in permeability), whereas a blue skin coloration at the injection site was defined as a positive observation (i.e. increased vessel permeability). The percentage of positive wheals among total wheals produced by the same substance and does within each group of treated animals (n=12 per treatment group) was calculated. […]

Data set [2] deals with thrombin-induced enhanced vascular permeability. The data set is described as follows: thrombin-induced enhanced vascular permeability (Evan's Blue wheals). It is filed as in vivo, guinea pigs. The method, then:
as §1, §2, §3

Data set [3] can be described thus: protein C activity, aminolytic assay after activation by Protac. It counts as biochemical. The note with it: finished lyophilized preparation; 1 unit = protein C activity in 1 ml normal plasma. The method, then:
The prothrombin complex concentrate was dissolved in the absorption buffer of Example 1, with about 10 g of the prothrombin complex concentrate being employed for a 20 ml monoclonal antibody column. Subsequently, the dissolved prothrombin complex concentrate was filtered, centrifuged at 20,000 r.p.m. for 15 min. and sterilely filtered through a 0.8 μm filter. The sterilely filtered and dissolved prothrombin complex concentrate was applied to the column at a flow rate of 10 ml/h. Subsequently, the column was washed free of protein with the washing buffer of Example 1, the bound protein C was eluted by means of the elution buffer of Example 1 at a flow rate of 5 ml/h and the fractions containing eluted protein C were collected and pooled. The eluted protein C was dialyzed against a buffer (0.2 mol/1 Tris, 0.15 mol glycine and 1 mmol EDTA, pH 8.3). Protein C antigen concentration was determined using the method described by Laurell, and protein C activity was determined using Protac activation.
The lyophilized, virus inactivated material was then dissolved in a sterile isotonic NaCl solution and any antibodies or serum amyloid P potentially present in the preparation were eliminated by means of ion exchange chromatography on a Q-Sepharose column. […] Neither murine immunoglobulin nor Factors II, VII, IX and X could be detected. […]

For data set [4], the system named is thrombus formation on prosthetic vascular grafts. The note with it: infusion; Gruber et al. 1989; cited from earlier work.
Another data set relates to endotoxin shock. The note with it: Taylor et al. 1987; cited from earlier work.
In a further data set the test system is coronary blood flow. The note with it: intracoronary administration; cited from earlier work.

As to “protein C: Highly purified human protein C zymogen from prothrombin complex concentrate, purified by monoclonal antibody affinity chromatography, virus inactivated”, the Pain threshold was 65 ± 2.0% and 60 ± 6% in the data set on inflamed rat paw model (% of the pain threshold (control value)); 106.7 ± 18.1% with inflamed rat paw model (animals treated with reserpine and alpha-methyl-p-tyrosine). Besides, the anti-nociceptive effect entry is “significant, dose-dependent anti-nociceptive effect” in the data set on inflamed rat paw model (protein C i.v. immediately upon carrageenan, 8 to 800 U/kg, FIG. 1) and “also detectable with subcutaneous administration” with inflamed rat paw model (subcutaneous administration). In the data set on inflamed rat paw model (protein C intravenously, carrageenan intraplantar), the “signs of inflammation, such as oedema” value is recorded as “signs of inflammation, such as oedema, were reduced”. The “anti-nociceptive effect after chemical sympathectomy” value with inflamed rat paw model (reserpine 7.5 mg/kg i.p. and alpha-methyl-p-tyrosine 250 mg/kg i.p.) is reported as “still acts as a highly effective anti-nociceptive”. Also, the “number of perivascular leukocytes” value in the data set with perivascular leukocytes is listed as “reduced number of perivascular leukocytes compared to the untreated animals”. Besides, the “shift of the histamine dose-response curve to the right (factor)” value in data set [1] (800 IU protein C/Kg i.v., % positive wheals, FIG. 4) is on record as 4. The “effect on histamine-increased endothelial permeability” value in data set [1] (pretreatment with protein C) is “effective in preventing the effects of both histamine and thrombin on increased endothelial permeability”. Besides, in data set [2] (800 IU protein C/Kg i.v., % positive wheals, FIG. 5), the “shift of the thrombin dose-response curve to the right (factor)” value is listed as 9. The “effect on thrombin-increased endothelial permeability” value in data set [2] (pretreatment with protein C) is “effective in preventing the effects of both histamine and thrombin on increased endothelial permeability”. Besides, the specific activity in data set [3] worked out at 14 units protein C per mg.

As for `CC(C)NCC(O)COc1cccc2[nH]ccc12` (centres unmarked) [pindolol, reference compound], the “antagonism of the effect of protein C in sympathectomized animals” value with inflamed rat paw model (reserpine and alpha-methyl-p-tyrosine treated) is given as “completely antagonizes the effect of protein C”. Further, the “antagonism of the anti-nociceptive effect of protein C” value with inflamed rat paw model is listed as “antagonize the effect of protein C in a dose-dependent manner”.

As to “NH2 -Asp-Thr-Glu-Asp-Gln-Glu-Asp-Gln-Val-Asp-Pro-Arg-COOH (H-DTEDQEDQVDPR-OH) [activation peptide of protein C]”, the anti-nociceptive effect entry in the data set with inflamed rat paw model (peptide i.v. 3.125 to 100 μg/kg, measured 6 hours later, FIG. 3) was “has an anti-nociceptive effect”.

As for `CC(Cc1ccc(O)cc1)NCC(O)c1cc(O)cc(O)c1` (centres unmarked) [fenoterol, reference compound], the anti-nociceptive effect result in the data set on inflamed rat paw model (i.v., either 5 mg/kg at the beginning of the assay or 3 mg/kg at the 3 hr time point) was “marked anti-nociceptive effect”.

On to activated protein C, for which the thrombotic occlusion result in data set [4] was “Thrombotic occlusion was prevented”. Further, the “protection against coagulopathic and lethal effects of endotoxin shock” value in the data set with endotoxin shock is “protect animals against the coagulopathic and lethal effects of endotoxin shock”. Further, the coronary blood flow result in the data set on coronary blood flow is reported as “increase in coronary blood flow”.

For `CC(C)NCC(O)COc1cccc2ccccc12` (centres unmarked) [propranolol, reference compound], the “antagonism of the anti-nociceptive effect of protein C” value in the data set with inflamed rat paw model was “antagonizes the anti-nociceptive effect of protein C”.
